The text below walks through data of ChEMBL document CHEMBL4715815, “Design, synthesis and biological evaluation of 7H-pyrrolo[2,3-d]pyrimidin-4-amine derivatives as selective Btk inhibitors with improved pharmacokinetic properties for the treatment of rheumatoid arthritis” (Eur J Med Chem, 2018).

Each structure is given as a SMILES string. Active and inactive are the calls of the source. Where only a bound is given, the exact number is not on record here.

The target of data set [1] is Tyrosine-protein kinase JAK1 (Homo sapiens, UniProt P23458). The data set can be described thus: Inhibition of JAK1 (unknown origin).
Data set [2] concerns the target Tyrosine-protein kinase Yes (Homo sapiens, UniProt P07947). The data set can be described thus: Inhibition of recombinant human YES using biotinyl-beta Abeta-Abeta AYQAEENTYDEYEN as substrate incubate for 30 mins by LANCE assay. A general note: Time-resolved FRET reads energy transfer from a long-lived donor to a nearby acceptor.
Data set [3] can be described thus: Metabolic stability in dog liver microsomes assessed as half life at 100 uM/L measured upto 90 mins by LC-MS/MS analysis. The format is ADME, Canis lupus familiaris, Microsome.
Data set [4] in a line: Toxicity in BALB/c mouse assessed as effect on lung at 2 g/kg, po measured after 7 days of administration by histopathological analysis. Conditions: in vivo, 168 h.
In data set [5] the target is T1, Tyrosine-protein kinase BTK (Homo sapiens, UniProt Q06187). The data set can be described thus: Inhibition of BTK in human Raji cells assessed as reduction in BTK Y551 phosphorylation at 0.03 to 10 uM incubated for 1 hr by Western blot analysis. Conditions: dose 0.03-10 µM. Format: cell-based. (A western blot detects proteins with antibodies after separation by electrophoresis.)
T1 sequence (Q06187 whole entry): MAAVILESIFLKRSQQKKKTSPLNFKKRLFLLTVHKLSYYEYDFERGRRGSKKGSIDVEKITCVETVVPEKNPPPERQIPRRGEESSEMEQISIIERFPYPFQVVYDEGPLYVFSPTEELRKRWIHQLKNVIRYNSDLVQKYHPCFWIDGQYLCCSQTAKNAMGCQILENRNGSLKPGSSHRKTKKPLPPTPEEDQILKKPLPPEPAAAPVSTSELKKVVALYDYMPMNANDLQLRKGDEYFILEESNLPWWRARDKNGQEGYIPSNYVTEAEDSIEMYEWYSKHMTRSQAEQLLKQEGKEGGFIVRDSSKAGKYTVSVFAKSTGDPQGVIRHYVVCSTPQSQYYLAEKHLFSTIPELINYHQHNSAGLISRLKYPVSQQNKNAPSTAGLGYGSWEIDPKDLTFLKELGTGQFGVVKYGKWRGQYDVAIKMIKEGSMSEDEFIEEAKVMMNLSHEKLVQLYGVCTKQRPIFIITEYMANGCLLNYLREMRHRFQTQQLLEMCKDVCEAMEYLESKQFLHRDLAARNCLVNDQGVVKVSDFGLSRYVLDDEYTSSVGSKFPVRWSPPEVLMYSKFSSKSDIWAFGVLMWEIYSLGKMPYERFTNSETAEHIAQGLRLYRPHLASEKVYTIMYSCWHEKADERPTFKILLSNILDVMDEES

Data set [6] deals with T1, Tyrosine-protein kinase BTK. The data set can be described thus: Inhibition of BTK (unknown origin) by caliper mobility shift assay.
Data set [7] can be described thus: Oral bioavailability in Sprague-Dawley rat at 3 mg/kg measured up to 24 hrs by LC-MS/MS analysis. The format is ADME, organism-based. To be noted: in vivo.
The target in data set [8] is T1, Tyrosine-protein kinase BTK. The data set can be described thus: Inhibition of BTK in human Daudi cells assessed as reduction in PLCgamma2 Y1217 phosphorylation at 0.03 to 10 uM incubated for 1 hr by Western blot analysis. The format is cell-based. To be noted: dose 0.03-10 µM.
Data set [9] can be described thus: Tmax in Sprague-Dawley rat at 3 mg/kg, iv measured up to 24 hrs by LC-MS/MS analysis. The format is ADME, organism-based. To be noted: in vivo.
Data set [10] deals with Receptor-type tyrosine-protein kinase FLT3 (Homo sapiens, UniProt P36888). The data set can be described thus: Inhibition of FLT3 (unknown origin).
Chain of Receptor-type tyrosine-protein kinase FLT3 (P36888 whole entry): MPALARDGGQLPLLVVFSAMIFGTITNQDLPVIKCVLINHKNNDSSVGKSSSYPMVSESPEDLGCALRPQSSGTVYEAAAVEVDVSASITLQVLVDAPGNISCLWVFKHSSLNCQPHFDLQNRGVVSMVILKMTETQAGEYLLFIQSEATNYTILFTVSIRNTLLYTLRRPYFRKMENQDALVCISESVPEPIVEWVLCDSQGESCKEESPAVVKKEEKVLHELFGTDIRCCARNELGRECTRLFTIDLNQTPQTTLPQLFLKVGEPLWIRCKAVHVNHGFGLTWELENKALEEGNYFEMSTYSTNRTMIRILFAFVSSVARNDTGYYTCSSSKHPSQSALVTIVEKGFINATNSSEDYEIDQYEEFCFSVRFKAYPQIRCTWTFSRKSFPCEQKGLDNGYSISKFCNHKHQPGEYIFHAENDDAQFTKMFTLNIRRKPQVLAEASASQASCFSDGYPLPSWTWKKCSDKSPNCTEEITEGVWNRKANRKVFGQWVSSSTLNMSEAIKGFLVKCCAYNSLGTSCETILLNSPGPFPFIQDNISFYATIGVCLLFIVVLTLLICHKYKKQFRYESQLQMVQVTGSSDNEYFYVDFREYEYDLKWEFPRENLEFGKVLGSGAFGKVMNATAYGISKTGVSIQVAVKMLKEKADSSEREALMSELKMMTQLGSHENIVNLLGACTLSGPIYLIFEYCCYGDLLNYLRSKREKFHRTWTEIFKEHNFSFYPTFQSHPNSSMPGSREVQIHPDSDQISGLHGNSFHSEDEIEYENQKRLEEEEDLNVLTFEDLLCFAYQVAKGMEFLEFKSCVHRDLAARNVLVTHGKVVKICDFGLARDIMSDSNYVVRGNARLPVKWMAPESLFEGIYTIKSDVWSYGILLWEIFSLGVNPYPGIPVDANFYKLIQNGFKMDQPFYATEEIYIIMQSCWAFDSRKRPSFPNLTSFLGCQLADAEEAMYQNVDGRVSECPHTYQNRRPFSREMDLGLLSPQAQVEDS
The target in data set [11] is Tyrosine-protein kinase Lyn (Homo sapiens, UniProt P07948). The data set can be described thus: Inhibition of recombinant human LYN using biotinyl-beta Abeta-Abeta AKVEKIGEGTYGVVYK as substrate incubate for 120 mins by LANCE assay.
Chain of Tyrosine-protein kinase Lyn (P07948 whole entry): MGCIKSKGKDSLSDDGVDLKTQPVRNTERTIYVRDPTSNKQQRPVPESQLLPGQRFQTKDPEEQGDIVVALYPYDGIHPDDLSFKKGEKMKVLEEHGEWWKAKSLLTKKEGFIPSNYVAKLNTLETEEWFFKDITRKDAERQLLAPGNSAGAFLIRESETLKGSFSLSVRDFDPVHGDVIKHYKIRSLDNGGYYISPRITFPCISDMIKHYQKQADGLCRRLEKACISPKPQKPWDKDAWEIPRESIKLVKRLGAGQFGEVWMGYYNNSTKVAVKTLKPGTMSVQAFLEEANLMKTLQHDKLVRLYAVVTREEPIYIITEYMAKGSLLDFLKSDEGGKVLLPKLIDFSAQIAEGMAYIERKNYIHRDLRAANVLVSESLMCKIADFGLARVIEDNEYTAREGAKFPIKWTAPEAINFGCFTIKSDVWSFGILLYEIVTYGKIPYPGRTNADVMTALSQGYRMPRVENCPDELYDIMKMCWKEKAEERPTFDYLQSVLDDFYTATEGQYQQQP
The target in data set [12] is Tyrosine-protein kinase Blk (Homo sapiens, UniProt P51451). The data set can be described thus: Inhibition of BLK (unknown origin).
Chain of Tyrosine-protein kinase Blk (P51451 whole entry): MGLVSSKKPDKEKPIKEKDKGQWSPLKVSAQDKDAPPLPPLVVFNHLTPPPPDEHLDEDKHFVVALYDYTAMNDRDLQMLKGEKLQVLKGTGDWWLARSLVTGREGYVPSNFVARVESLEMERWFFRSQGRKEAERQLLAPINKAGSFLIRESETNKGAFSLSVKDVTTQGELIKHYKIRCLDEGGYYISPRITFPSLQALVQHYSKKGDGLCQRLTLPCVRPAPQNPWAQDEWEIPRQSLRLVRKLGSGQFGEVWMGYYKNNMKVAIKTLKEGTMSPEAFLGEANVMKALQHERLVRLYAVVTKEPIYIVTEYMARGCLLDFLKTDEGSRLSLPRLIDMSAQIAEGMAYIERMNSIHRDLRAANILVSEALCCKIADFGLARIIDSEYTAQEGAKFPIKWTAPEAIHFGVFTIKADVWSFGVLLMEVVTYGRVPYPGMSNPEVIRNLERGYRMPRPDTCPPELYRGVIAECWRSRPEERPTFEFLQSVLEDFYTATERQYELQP
Data set [13] is described as follows: Toxicity in BALB/c mouse assessed as clinical signs at 2 g/kg, po measured after 7 days of administration. To be noted: in vivo, 168 h.
A short description of data set [14]: Toxicity in BALB/c mouse assessed as mouse survival at 2 g/kg, po measured after 7 days of administration. Conditions: in vivo, 168 h.
Data set [15] concerns the target Ribosomal protein S6 kinase alpha-1 (Homo sapiens, UniProt Q15418). The data set can be described thus: Inhibition of RSK1 (unknown origin).

Chain of Tyrosine-protein kinase Yes (P07947 whole entry): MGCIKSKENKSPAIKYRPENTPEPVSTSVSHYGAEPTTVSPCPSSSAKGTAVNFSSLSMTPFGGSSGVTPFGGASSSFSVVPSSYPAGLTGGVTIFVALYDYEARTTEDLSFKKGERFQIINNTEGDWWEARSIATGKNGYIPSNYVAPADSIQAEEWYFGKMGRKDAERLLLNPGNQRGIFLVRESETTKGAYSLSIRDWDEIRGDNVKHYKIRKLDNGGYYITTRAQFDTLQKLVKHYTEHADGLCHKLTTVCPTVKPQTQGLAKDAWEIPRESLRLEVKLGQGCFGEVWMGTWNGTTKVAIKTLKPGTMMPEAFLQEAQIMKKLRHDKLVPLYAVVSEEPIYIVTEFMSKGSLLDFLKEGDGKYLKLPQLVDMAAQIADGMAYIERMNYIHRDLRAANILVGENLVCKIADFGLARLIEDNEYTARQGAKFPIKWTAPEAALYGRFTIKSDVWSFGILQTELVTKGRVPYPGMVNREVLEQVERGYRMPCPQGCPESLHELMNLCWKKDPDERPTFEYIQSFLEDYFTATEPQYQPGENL
Chain of Ribosomal protein S6 kinase alpha-1 (Q15418 whole entry): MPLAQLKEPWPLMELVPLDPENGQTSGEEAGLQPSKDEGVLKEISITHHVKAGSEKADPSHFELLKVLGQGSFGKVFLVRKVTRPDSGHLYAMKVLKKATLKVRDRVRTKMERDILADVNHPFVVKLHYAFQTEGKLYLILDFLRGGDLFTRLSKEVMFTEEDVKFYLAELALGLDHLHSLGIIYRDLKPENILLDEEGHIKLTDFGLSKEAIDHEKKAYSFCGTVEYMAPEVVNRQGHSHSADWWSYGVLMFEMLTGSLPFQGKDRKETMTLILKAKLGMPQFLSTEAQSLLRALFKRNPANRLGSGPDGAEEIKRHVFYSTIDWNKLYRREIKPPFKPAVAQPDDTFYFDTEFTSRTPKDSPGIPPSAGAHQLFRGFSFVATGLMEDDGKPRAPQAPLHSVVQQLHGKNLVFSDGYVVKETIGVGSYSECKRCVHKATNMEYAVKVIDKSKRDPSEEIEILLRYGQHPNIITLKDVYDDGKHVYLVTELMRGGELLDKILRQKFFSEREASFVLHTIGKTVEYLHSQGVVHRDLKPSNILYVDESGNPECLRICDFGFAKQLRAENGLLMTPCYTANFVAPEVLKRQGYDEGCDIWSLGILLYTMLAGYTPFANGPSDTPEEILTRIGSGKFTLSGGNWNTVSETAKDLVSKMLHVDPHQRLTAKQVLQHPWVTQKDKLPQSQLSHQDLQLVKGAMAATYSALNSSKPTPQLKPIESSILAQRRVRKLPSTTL

Take `C=CC(=O)N1CCC(Cn2cc(-c3ccc4c(c3)OCO4)c3c(N)ncnc32)CC1`: the concentration for half-maximal inhibition (IC50) in data set [1] was more than 10 µM; in [2] it was 146 nM; in data set [6], 21.7 nM; in data set [10] it was more than 10 µM; in data set [11], 259 nM; in data set [12] it was 504 nM. Moreover, the 50% inhibitory concentration (IC50) in data set [15] was more than 10 µM. Further, in data set [3], the half-life at 100 µM is 315 min. Further, the Activity entry in [4], in data set [13] and in [14] was “Non-Toxic” throughout. Moreover, the inhibition entry in [5] is “inactive”. This compound came in with a bioavailability in data set [7] of 49.1%. Besides, the inhibition result in [8] was “Active”. Further, in [9], the Tmax was 6.6 min.

One may read the IC50 as the concentration needed to halve the response being measured. As a reminder, the half-life is the time needed for the level to fall by half in the phase considered. What is called bioavailability is the share of a dose that reaches the circulation, judged against a reference dose that is usually intravenous. As usually defined, the Tmax is the time from dosing to the highest level.
